Columns and labels:
[1] = Stability of salts on storage at room temperature and 80% relative humidity (XRPD); assay type: physicochemical; details: for changes in the XRPD pattern after storage: 7 days at room temperature and 80% relative humidity
Description: Each of the salts obtained was characterized by X-ray powder diffraction (XRPD), Thermogravimetric analysis (TGA), and Differential Scanning calorimetry (DSC). Furthermore, the stabilities of the sodium, potassium, L-Arginine and L-Lysine salts were tested by storage for 7 days at room temperature and 80% relative humidity.

[2] = Thermodynamic solubility of salts in water; assay type: physicochemical; details: for Solubility: 37° C., pH 6.8-7.4, stirring 500 rpm, 24 hours
Description: Each of the sodium, potassium, L-Arg and L-Lys salts prepared as described above was dissolved in water at a temperature of 37° C., pH 6.8-7.4 at a stirring rate of 500 rpm for 24 hours.

| SMILES | changes in the XRPD pattern after storage [1] | stability when stored under conditions of high humidity (in words) [1] | solubility in water (in words) [2] | Solubility [2] [g/L] |
| --- | --- | --- | --- | --- |
| O=C(O)C1(c2ccc(-c3ccc(Cl)c(Cl)c3)c(F)c2)CC1 [Sodium, 1-(3′,4′-dichloro-2-fluorobiphenyl-4-yl)cyclopropanecarboxylic acid] | No changes | good stability | excellent solubility | 20.4 |
| O=C(O)C1(c2ccc(-c3ccc(Cl)c(Cl)c3)c(F)c2)CC1 [Potassium, 1-(3′,4′-dichloro-2-fluorobiphenyl-4-yl)cyclopropanecarboxylic acid] | No changes | good stability | excellent solubility | 6.3 |
| O=C(O)C1(c2ccc(-c3ccc(Cl)c(Cl)c3)c(F)c2)CC1 [L-Arginine, 1-(3′,4′-dichloro-2-fluorobiphenyl-4-yl)cyclopropanecarboxylic acid] | No changes | good stability | excellent solubility | 15.2 |
| O=C(O)C1(c2ccc(-c3ccc(Cl)c(Cl)c3)c(F)c2)CC1 [L-Lysine, 1-(3′,4′-dichloro-2-fluorobiphenyl-4-yl)cyclopropanecarboxylic acid] | No changes | good stability | excellent solubility | 36.6 |
